Assay results: article PMC10817943 (Nature Communications, 2024)
≈ marks a conversion by molar mass, not a printed value. Where “and” joins values, the source holds several entries; their conditions need not be identical. Identical values can stand only once. Like-named read-outs stand apart in the source and are kept apart here. Numbered stars: 1 amine (or outer) side, 2 acyl side, 3 side chain; on linkers, the order of the positions; unused ones are H or OH. Bridge positions count the residues as written; N and C are the ends. Square brackets hold non-standard residues; d marks the D form. Ends that are not written are not given here. Peptide text beside a SMILES is read from it. * marks the point of attachment. ξ: configuration not given here. X2 = CCCC1CC(C(=O)[*:2])N([*:1])C1; Butanoyl(2-oxo) = CCC(=O)C(=O)*; NMeAhp(2) = CCCCC[CH](NC)C(=O)O; ξPro(4ξ-Me) = CC1CNC(C(=O)O)C1; NMeT = CN[CH](C(=O)O)[CH](C)O; NMeL = CN[CH](CC(C)C)C(=O)O; hLeu = CC(C)CC[CH](N)C(=O)O; NMeV = CN[CH](C(=O)O)C(C)C

T1: M. smegmatis DnaN (DNA polymerase III sliding clamp) (M. smegmatis mc^2155, UniProt A0QND6 1-397, labeled using Monolith Series Protein Labeling Kit BLUE-NHS)
T1 construct: also called msDnaN; DnaN from M. smegmatis mc^2155
T1 sequence (looked up): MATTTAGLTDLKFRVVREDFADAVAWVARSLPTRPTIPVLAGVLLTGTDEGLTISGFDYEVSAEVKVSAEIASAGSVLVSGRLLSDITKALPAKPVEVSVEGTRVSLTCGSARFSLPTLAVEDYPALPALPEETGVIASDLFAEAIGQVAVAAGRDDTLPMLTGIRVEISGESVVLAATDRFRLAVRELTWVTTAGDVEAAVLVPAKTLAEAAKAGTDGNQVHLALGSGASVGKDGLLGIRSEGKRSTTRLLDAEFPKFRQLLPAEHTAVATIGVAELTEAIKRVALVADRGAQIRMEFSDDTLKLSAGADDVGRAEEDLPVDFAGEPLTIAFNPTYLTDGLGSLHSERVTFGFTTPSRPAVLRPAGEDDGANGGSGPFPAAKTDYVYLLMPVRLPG

B1: griselimycin (peptide)
chain: VPTLPLVPLG
modifications: also: macrocycle, 4-methylproline twice, positions not placed

Tests used:
[1] = test system: M. tuberculosis (Mtb) strain H37Ra; experiment: microbe, parasite or virus in culture; type: cell-based; details: Mycobacterium tuberculosis, read-out: MIC Mtb H37Ra
[2] = test system: M. tuberculosis (Mtb) strain H37Rv; experiment: microbe, parasite or virus in culture; type: cell-based, Mycobacterium tuberculosis; details: Mycobacterium tuberculosis, H37RV
[3] = test system: M. smegmatis (Msmeg) strain mc^2155; experiment: microbe, parasite or virus in culture; type: cell-based; details: Mycolicibacterium smegmatis, MC^2155, read-out: MIC M. smegmatis mc^2155
[4] = test system: M. smegmatis mc^2155 GM^R; experiment: microbe, parasite or virus in culture; type: cell-based; details: Mycolicibacterium smegmatis, MC^2155, read-out: MIC M. smegmatis mc^2155 GM^R
[5] = test system: M. marinum (Mm) strain M (ATCC BAA-535); experiment: microbe, parasite or virus in culture; type: cell-based; details: Mycobacterium marinum, ATCCBAA535, read-out: MIC M. marinum strain M
CHO-K1 cells = experiment: cells; type: cell-based, Chinese hamster (Cricetulus griseus); details: Cricetulus griseus, CHO-K1, 120 h, read-out: IC50 CHO-K1
[6] = molecular target: M. smegmatis DnaN (msDnaN) (Mycolicibacterium smegmatis, UniProt A0QND6); experiment: biochemical; type: binding; details: for Response (Average): MST source data, runs #1-#3, listed as MP B
S. aureus Newman = experiment: microbe, parasite or virus in culture; type: cell-based; details: Staphylococcus aureus, read-out: MIC S. aureus Newman
B. subtilis DSM 10 = experiment: microbe, parasite or virus in culture; type: cell-based; details: Bacillus subtilis, DSM10, read-out: MIC B. subtilis DSM 10
E. coli BW25113 = experiment: microbe, parasite or virus in culture; type: cell-based; details: Escherichia coli, BW25113, read-out: MIC E. coli BW25113
C. freundii DSM 30039 = experiment: microbe, parasite or virus in culture; type: cell-based; details: Citrobacter freundii, DSM30039, read-out: MIC C. freundii DSM 30039
A. baumannii DSM 30008 = experiment: microbe, parasite or virus in culture; type: cell-based; details: Acinetobacter baumannii, DSM30008, read-out: MIC A. baumannii DSM 30008
[7] = molecular target: T1, M. smegmatis DnaN (DNA polymerase III …); experiment: MST; msDnaN labeled (BLUE-NHS) at 50 nM; compounds titrated in 16 serial dilution steps, triplicates; 20 mM Tris, 150 mM NaCl, 0.05% Tween-20; Monolith NT-115; details: both partners purified

Molecule	MIC [1] [µg/mL]	MIC ([2]; read-out: MIC Mtb H37Rv) [µg/mL]	MIC [3] [µg/mL]	MIC [4] [µg/mL]	MIC [5] [µg/mL]	IC50 (CHO-K1 cells) [µg/mL]	Kd [6] [nM]	MIC (S. aureus Newman) [µg/mL]	MIC (B. subtilis DSM 10) [µg/mL]	MIC (E. coli BW25113) [µg/mL]	MIC (C. freundii DSM 30039) [µg/mL]	MIC (A. baumannii DSM 30008) [µg/mL]	also measured
CCCC1CC(C(=O)N(C)C2C(=O)NC(CC(C)C)C(=O)N3CC(C)CC3C(=O)NC(CCC(C)C)C(=O)N(C)C(C(C)C)C(=O)N3CCCC3C(=O)N(C)C(CC(C)C)C(=O)NCC(=O)OC2C)N(C(=O)C(C(C)C)N(C)C(=O)C(=O)CC)C1 (centres unmarked) [Mycoplanecin D] ({Butanoyl(2-oxo)}-[NMeV][X2][NMeT]L[ξPro(4ξ-Me)][hLeu][NMeV]P[NMeL]G; ester 3-C; configuration not given here)	0.05 (≈ 0.0418 µM)	0.17 (≈ 0.142 µM)	0.25 (≈ 0.209 µM)	8 (≈ 6.68 µM)	1 (≈ 0.835 µM)	> 37	134 ± 69.3	> 64	> 64	> 64	> 64	> 64	–
CCCCCC1C(=O)NCC(=O)OC(C)C(N(C)C(=O)C2CC(CCC)CN2C(=O)C(C(C)C)N(C)C(=O)C(=O)CC)C(=O)NC(CC(C)C)C(=O)N2CC(C)CC2C(=O)NC(CCC(C)C)C(=O)N(C)C(C(C)C)C(=O)N2CCCC2C(=O)N1C (centres unmarked) [Mycoplanecin E] ({Butanoyl(2-oxo)}-[NMeV][X2][NMeT]L[ξPro(4ξ-Me)][hLeu][NMeV]P[NMeAhp(2)]G; ester 3-C; configuration not given here)	0.03 (≈ 0.0248 µM)	0.083 (≈ 0.0685 µM)	0.125 (≈ 0.103 µM)	–	0.5 (≈ 0.413 µM)	> 37	64.4 ± 33.2	> 64	> 64	> 64	> 64	> 64	MIC ([2]; read-out: minimum inhibition concentration against Mycobacterium tuberculosis): 0.083 µg/mL (≈ 0.0685 µM)
CCC(=O)C(=O)N(C)C(C(=O)N1CC(C)CC1C(=O)N(C)C1C(=O)NC(CC(C)C)C(=O)N2CC(C)CC2C(=O)NC(CCC(C)C)C(=O)N(C)C(C(C)C)C(=O)N2CCCC2C(=O)N(C)C(CC(C)C)C(=O)NCC(=O)OC1C)C(C)C (centres unmarked) [Mycoplanecin B]	0.1 (≈ 0.0855 µM)	0.43 (≈ 0.368 µM)	0.5 (≈ 0.428 µM)	8 (≈ 6.84 µM)	2 (≈ 1.71 µM)	> 37	24.4 ± 11.9	> 64	> 64	> 64	> 64	> 64	Response (Average) ([6]; Dose 1.22E-08 (unit not given)): 897.348 and 900.943 and 911.516; Response (Average) ([6]; Dose 1.25E-05 (unit not given)): 906.572 and 909.169 and 909.706; Response (Average) ([6]; Dose 1.53E-09 (unit not given)): 896.843 and 900.134 and 899.613; Response (Average) ([6]; Dose 1.56E-06 (unit not given)): 907.358 and 910.005 and 911.362; Response (Average) ([6]; Dose 1.95E-07 (unit not given)): 905.084 and 913.604 and 911.242; Response (Average) ([6]; Dose 2.44E-08 (unit not given)): 897.582 and 904.128 and 903.123; Response (Average) ([6]; Dose 2.50E-05 (unit not given)): 906.786 and 911.734 and 910.009; Response (Average) ([6]; Dose 3.05E-09 (unit not given)): 897.958 and 898.601 and 900.671; Response (Average) ([6]; Dose 3.13E-06 (unit not given)): 907.585 and 910.886 and 909.908; Response (Average) ([6]; Dose 3.91E-07 (unit not given)): 908.074 and 910.248 and 909.115; Response (Average) ([6]; Dose 4.88E-08 (unit not given)): 897.616 and 904.939 and 909.25; Response (Average) ([6]; Dose 5.00E-05 (unit not given)): 906.528 and 909.788 and 910.069; Response (Average) ([6]; Dose 6.10E-09 (unit not given)): 894.937 and 899.128 and 901.665; Response (Average) ([6]; Dose 6.25E-06 (unit not given)): 905.496 and 910.338 and 909.682; Response (Average) ([6]; Dose 7.81E-07 (unit not given)): 907.246 and 909.231 and 910.996; Response (Average) ([6]; Dose 9.77E-08 (unit not given)): 902.534 and 911.539 and 911.215
B1	–	–	–	–	–	–	–	–	–	–	–	–	Kd [7]: 6.5 nM
